# Experimental data published in article PMC7701510, “Identification of HN252 as a potent inhibitor of protein phosphatase PPM1B” (Journal of Cellular and Molecular Medicine, 2020).
# Entries after “also recorded” stand apart in the source; their conditions may differ.
# Key:
# PPM1B = target: T1, PPM1B (Homo sapiens, UniProt O75688); experiment: pNPP hydrolysis phosphatase kinetic assay; type: biochemical
# T1 construct: inferred from pET-28a vector and Ni-NTA purification; made in house; host or cells: Escherichia coli BL21
# T1 sequence (O75688 1-479): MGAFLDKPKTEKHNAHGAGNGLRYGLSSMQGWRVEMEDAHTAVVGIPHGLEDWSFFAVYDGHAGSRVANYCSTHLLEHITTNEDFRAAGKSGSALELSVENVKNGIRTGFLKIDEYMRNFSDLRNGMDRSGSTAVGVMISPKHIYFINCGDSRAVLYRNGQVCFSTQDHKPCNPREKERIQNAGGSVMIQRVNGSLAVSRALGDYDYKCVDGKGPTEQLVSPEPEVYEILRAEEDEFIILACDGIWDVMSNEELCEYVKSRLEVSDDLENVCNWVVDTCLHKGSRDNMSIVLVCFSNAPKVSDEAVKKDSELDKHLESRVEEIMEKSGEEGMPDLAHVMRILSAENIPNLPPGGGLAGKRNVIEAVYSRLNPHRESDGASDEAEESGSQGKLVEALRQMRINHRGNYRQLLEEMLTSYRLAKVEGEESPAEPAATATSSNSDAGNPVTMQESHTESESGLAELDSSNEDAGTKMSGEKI
# Experimental: Escherichia coli BL21 strain was transformed with pET‐28a bacterial expression vector harbouring PPM1B and its mutants. ^17 The fusion proteins were induced to be expressed with 0.5 mM isopropyl‐β‐D‐thiogalactoside (IPTG) and purified from bacterial lysate by Ni‐NTA chromatographic matrices (Qiagen) and AKTA FPLC (GE Healthcare Life Sciences) using a Superdex Increase 200 column.
# The kinetic assays of PPM1B were carried out at 37°C in 0.1 M acetic acid buffer (50 mM Tris, 40 mM Mn^2+, pH 7.0). The p‐nitrophenyl phosphate (pNPP, Sigma) was used as the substrate which could be conveniently measured at 405 nm. Reactions were started by addition of pNPP to a reaction mixture containing PPM1B (0.4 μM PPM1B, final concentration) and various concentrations of HN252 and stopped by addition of 0.5 M EDTA (pH 10.0) after an appropriate time. The Km value of PPM1B towards pNPP hydrolysis (3.6 mM for pNPP) was used to determine the IC50. The IC50 values, the inhibition constant Ki and inhibition pattern were evaluated as previously described. ^18 The kinetic assays of HN252 towards to other protein phosphatases were carried out as previously described. ^19
# PPM1F = target: T2, PPM1F (Homo sapiens, UniProt P49593); experiment: pNPP hydrolysis phosphatase assay (selectivity panel); type: biochemical; conditions: pNPP as substrate
# T2 sequence (P49593 1-454): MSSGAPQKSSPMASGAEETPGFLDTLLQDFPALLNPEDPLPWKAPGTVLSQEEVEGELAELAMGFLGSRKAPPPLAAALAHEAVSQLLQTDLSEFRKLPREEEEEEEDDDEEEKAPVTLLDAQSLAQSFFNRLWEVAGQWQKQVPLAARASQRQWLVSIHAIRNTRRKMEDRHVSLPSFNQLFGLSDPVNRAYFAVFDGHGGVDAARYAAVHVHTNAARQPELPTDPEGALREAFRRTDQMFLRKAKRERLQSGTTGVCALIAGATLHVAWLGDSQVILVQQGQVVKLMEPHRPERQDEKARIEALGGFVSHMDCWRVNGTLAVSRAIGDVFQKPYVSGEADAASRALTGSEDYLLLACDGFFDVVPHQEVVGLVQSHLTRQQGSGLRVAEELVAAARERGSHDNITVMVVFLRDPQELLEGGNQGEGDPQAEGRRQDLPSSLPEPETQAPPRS
# PHLPP2 = target: T3, PHLPP2 (Homo sapiens, UniProt Q6ZVD8); experiment: as above; type: biochemical; conditions: pNPP as substrate
# T3 sequence (Q6ZVD8 1-1323): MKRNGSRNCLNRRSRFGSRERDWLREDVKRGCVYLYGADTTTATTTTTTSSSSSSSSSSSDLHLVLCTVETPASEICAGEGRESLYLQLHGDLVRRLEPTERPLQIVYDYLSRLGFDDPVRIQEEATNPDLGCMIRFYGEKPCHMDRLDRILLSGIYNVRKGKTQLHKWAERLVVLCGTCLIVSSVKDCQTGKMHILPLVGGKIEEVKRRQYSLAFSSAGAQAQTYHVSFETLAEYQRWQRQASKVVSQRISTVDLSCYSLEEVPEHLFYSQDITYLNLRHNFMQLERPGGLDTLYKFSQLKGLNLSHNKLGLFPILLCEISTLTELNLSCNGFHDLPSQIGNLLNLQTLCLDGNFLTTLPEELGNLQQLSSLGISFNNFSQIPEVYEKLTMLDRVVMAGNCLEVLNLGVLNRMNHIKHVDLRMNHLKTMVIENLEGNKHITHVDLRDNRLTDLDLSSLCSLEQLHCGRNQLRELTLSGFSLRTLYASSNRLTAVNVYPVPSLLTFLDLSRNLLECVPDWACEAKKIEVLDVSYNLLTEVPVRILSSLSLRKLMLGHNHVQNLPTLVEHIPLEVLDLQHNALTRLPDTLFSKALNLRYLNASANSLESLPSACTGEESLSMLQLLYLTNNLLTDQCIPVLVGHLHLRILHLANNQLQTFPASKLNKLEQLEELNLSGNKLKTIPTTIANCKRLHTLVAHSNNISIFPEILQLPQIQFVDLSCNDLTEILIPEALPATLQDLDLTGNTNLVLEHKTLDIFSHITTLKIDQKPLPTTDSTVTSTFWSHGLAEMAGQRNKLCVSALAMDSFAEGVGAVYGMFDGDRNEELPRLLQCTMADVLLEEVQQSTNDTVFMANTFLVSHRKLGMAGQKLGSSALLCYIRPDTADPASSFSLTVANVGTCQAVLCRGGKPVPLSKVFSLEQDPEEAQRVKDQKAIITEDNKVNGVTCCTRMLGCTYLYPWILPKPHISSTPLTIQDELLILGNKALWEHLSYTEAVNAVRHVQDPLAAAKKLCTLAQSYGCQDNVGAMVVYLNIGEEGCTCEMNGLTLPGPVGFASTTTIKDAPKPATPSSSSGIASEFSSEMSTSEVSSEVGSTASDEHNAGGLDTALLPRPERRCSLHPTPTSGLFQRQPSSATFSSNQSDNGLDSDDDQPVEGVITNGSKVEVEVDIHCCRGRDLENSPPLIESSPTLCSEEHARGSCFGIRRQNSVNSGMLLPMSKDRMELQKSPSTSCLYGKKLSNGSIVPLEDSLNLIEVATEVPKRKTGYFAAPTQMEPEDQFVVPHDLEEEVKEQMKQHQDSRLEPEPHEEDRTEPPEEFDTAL
# topoisomerases = experiment: Topoisomerase inhibition in vitro; type: biochemical; conditions: data not shown
# [1] = test system: HL7702 cells with PPM1B shRNA; experiment: Western blot of protein phosphorylation in PPM1B knockdown cells with HN252; conditions: HN252 5 μM, 2 h, at 30 h after transfection
# Experimental: Cells were lysed in lysis buffer (50 mM Tris‐HCl, 150 mM NaCl, 0.1% SDS, 1% NP‐40, 0.5% deoxycholate, pH 7.4), supplemented with protease inhibitor (Roche) and phosphatase inhibitor cocktails (Roche). Protein samples were separated by SDS‐PAGE and wet‐transferred to PVDF membranes (Millipore). The membrane was blocked for 1 h in 5% BSA in TBST at room temperature and probed with the appropriate primary antibodies and with an HRP‐conjugated secondary antibody.
smiles,measurement,setting,value
Nc1cc(-c2ccc(-c3ccc(O)c(O)c3)cc2)ccc1C(=O)O [HN252],inhibition pattern,"PPM1B; Lineweaver-Burk plot, pNPP hydrolysis, pH 7.0, 37°C",competitive inhibition; also recorded: classical competitive inhibitor
same,Ki,"PPM1B; Lineweaver-Burk, pNPP, pH 7.0, 37°C, 0.4 μM PPM1B, 40 mM Mn2+",0.52 ± 0.06 µM
same,IC50,"PPM1B; pNPP substrate, 0.4 μM PPM1B, 40 mM Mn2+, pH 7.0, 37°C, wild type",0.76 µM
same,selectivity: increase in potency against PPM1B than other PSPs,"PPM1B; versus PPM1F, PPM1G, PPM1K, PHLPP2, PPM1A a notable exception",about 30 fold
same,IC50,PPM1F,30.6 ± 4.05 µM
same,IC50,PHLPP2,20.9 ± 1.74 µM
same,inhibition against topoisomerases,topoisomerases,no inhibition
same,"effect on phosphorylation of AMPKα, CDK2 and p38",[1],mild effect
